Results on 1 molecule are retold here after paper PMC10261806, “Development of lentil peptides with potent antioxidant, antihypertensive, and antidiabetic activities along with umami taste” (Food Science & Nutrition, 2023).

Molecules are shown by their SMILES.

For this assay, the target named is T1, rat intestinal α-glucosidase.
T1 construct: gene Si; native commercial rat intestinal preparation (Sigma I1630, usually intestinal acetone powder)
Briefly: p-nitrophenyl-α-D-glucopyranoside hydrolysis, absorbance at […] nm. Type of assay: biochemical. As to conditions: 5 mM PNPG stock, pH 6.8-6.9, 37 °C, 10 min preincubation; positive control.

As to `C[C@H]1O[C@H](O[C@H]2[C@H](O)[C@@H](O)[C@@H](O[C@H]3[C@H](O)[C@@H](O)C(O)O[C@@H]3CO)O[C@@H]2CO)[C@H](O)[C@@H](O)[C@@H]1N[C@H]1C=C(CO)[C@@H](O)[C@H](O)[C@H]1O` (stereo partly shown) [acarbose], the “IC50 of inhibitory activity / α-Glucosidase” value worked out at 0.51 ± 0.07 mg/mL.
